{"source": "patent US7183257B2", "about": "“Use of RPL41 to treat infections and inhibit cancer” (priority 2004, dated 2007)", "key": {"[1]": {"tested_on": "five tumor cell lines (HTB72, CRL1435, CRL5800, HCT116, MCF7)", "test": "Caspase inhibitor z-VAD.fmk with RPL41 (morphology and Δψm assays)", "type": "cell-based", "conditions": "Z-VAD.fmk 50 μM with RPL41 6.7 μM, 8 hours", "protocol": "FIG. 10—RPL41 induced cell death is caspase independent. […].\n. The cell death induced by RPL41, therefore, is likely to be caspase-independent. A broad-spectrum caspase inhibitor z-VAD.fmk was also incubated with five tumor cell lines, in the presence of RPL41, to determine whether the inhibition of caspases will attenuate RPL41 induced cell death. […]"}, "[2]": {"tested_on": "24 tumor cell lines of various tissue types (ATCC)", "type": "cell-based"}, "[3]": {"test": "Isoelectric point of peptide", "type": "physicochemical"}}, "note": "Peptide text beside a SMILES is read from it. * marks the point of attachment. Cbz = O=C(OCc1ccccc1)*; CH2F = FC*"}
{"molecule": "COC(=O)C[C@H](NC(=O)[C@H](C)NC(=O)[C@@H](NC(=O)OCc1ccccc1)C(C)C)C(=O)CF", "note": "[z-VAD.fmk] (Cbz-Val-Ala-Asp(OMe)-CH2F)", "values": [{"measurement": "suppression of RPL41 induced cell death", "setting": "[1]", "result": "failed to suppress the RPL41 induced cell death"}]}
{"molecule": "MLISSGLKDGIRSGI [control peptide unrelated to RPL41]", "values": [{"measurement": "effect on tumor cell growth", "setting": "[2]; concentration ten times higher than that of RPL41", "result": "no effect on tumor cell growth"}, {"measurement": "pI", "setting": "[3]", "result": 8.5}]}
{"molecule": "NH2-KARMRMKRKLRKRMRKRQRSRKWKR-OH (H-KARMRMKRKLRKRMRKRQRSRKWKR-OH)", "values": [{"measurement": "inhibition effect on tumor cell growth after pre-treatment of peptide with proteases", "setting": "[2]; peptides pre-treated with proteases (DIGEST-ALL, Zymed)", "result": "completely abolished"}]}
